Data taken from patent US20170190671A1, “BIS(ARYL)CATECHOL DERIVATIVES AS HERBICIDES” (E I DU PONT DE NEMOURS AND COMPANY, priority 2014, published 2017).

Key:
Format in all cases: in vivo
[1] = test system: barnyardgrass (Echinochloa crus-galli); assay: Test B flooded paddy; conditions: Echinochloa crus-galli, 336 h; 250 g ai/ha, Flood, 13 to 15 days, scale 0 (no effect) to 100 (complete control); read-out: Plant response rating, Barnyardgrass
In short: (§1)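 Greenhouse pots flooded to 3 cm above soil at time of treatment received compound via the water, which stayed at that level.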

[2] = test system: ducksalad (Heteranthera limosa); assay: Test B flooded paddy; conditions: Heteranthera limosa, 336 h; 250 g ai/ha, Flood, 13 to 15 days, scale 0 (no effect) to 100 (complete control); read-out: Plant response rating, Ducksalad
In short: as §1

[3] = test system: rice (Oryza sativa); assay: Test B flooded paddy; conditions: Oryza sativa, 336 h; 250 g ai/ha, Flood, 13 to 15 days, scale 0 (no effect) to 100 (complete control); read-out: Plant response rating, Rice
In short: as §1

[4] = test system: sedge, umbrella (small-flower umbrella sedge, Cyperus difformis); assay: Test B flooded paddy; conditions: Cyperus difformis, 336 h; 250 g ai/ha, Flood, 13 to 15 days, scale 0 (no effect) to 100 (complete control); read-out: Plant response rating, Sedge, Umbrella
In short: as §1

[5] = test system: pigweed (Amaranthus retroflexus); assay: Test A preemergence; conditions: Amaranthus retroflexus, pre-emergence, 240 h
In short: (§2)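 Scoring: eye-based comparison with untreated controls, 0 for no effect through 100 for complete control, at about day 10. Treatments: directed soil spray preemergence; foliar spray postemergence on 2–10 cm plants at the one- to two-leaf stage. Medium: loam soil with sand.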

[6] = test system: kochia (Kochia scoparia); assay: Test A preemergence; conditions: Bassia scoparia, pre-emergence, 240 h
In short: as §2

[7] = test system: barnyardgrass (Echinochloa crus-galli); assay: Test A preemergence; conditions: Echinochloa crus-galli, pre-emergence, 240 h
In short: as §2

[8] = test system: ragweed (common ragweed, Ambrosia elatior); assay: Test A preemergence; conditions: Ambrosia artemisiifolia, pre-emergence, 240 h
In short: as §2

[9] = test system: Italian ryegrass (Lolium multiflorum); assay: Test A preemergence; conditions: Lolium multiflorum, pre-emergence, 240 h
In short: as §2

[10] = test system: giant foxtail (Setaria faberii); assay: Test A preemergence; conditions: Setaria faberi, pre-emergence, 240 h
In short: as §2

[11] = test system: pigweed (Amaranthus retroflexus); assay: Test A postemergence; conditions: Amaranthus retroflexus, post-emergence, 240 h, 0 to 100 scale, read-out: Plant response rating, Pigweed
In short: as §2

[12] = test system: kochia (Kochia scoparia); assay: Test A postemergence; conditions: Bassia scoparia, post-emergence, 240 h, 0 to 100 scale, read-out: Plant response rating, Kochia
In short: as §2

[13] = test system: corn (Zea mays); assay: Test A postemergence; conditions: Zea mays, post-emergence, 240 h, 0 to 100 scale
In short: as §2

[14] = test system: blackgrass (Alopecurus myosuroides); assay: Test A postemergence; conditions: Alopecurus myosuroides, post-emergence, 240 h, 0 to 100 scale, read-out: Plant response rating, Blackgrass
In short: as §2

[15] = test system: wheat (Triticum aestivum); assay: Test A postemergence; conditions: Triticum aestivum, post-emergence, 240 h, 0 to 100 scale, read-out: Plant response rating, Wheat
In short: as §2

[16] = test system: barnyardgrass (Echinochloa crus-galli); assay: Test A postemergence; conditions: Echinochloa crus-galli, post-emergence, 240 h, 0 to 100 scale, read-out: Plant response rating, Barnyardgrass
In short: as §2

[17] = test system: galium (catchweed bedstraw, Galium aparine); assay: Test A postemergence; conditions: Galium, post-emergence, 240 h, 0 to 100 scale, read-out: Plant response rating, Galium
In short: as §2

[18] = test system: ragweed (common ragweed, Ambrosia elatior); assay: Test A postemergence; conditions: Ambrosia artemisiifolia, post-emergence, 240 h, 0 to 100 scale, read-out: Plant response rating, Ragweed
In short: as §2

[19] = test system: Italian ryegrass (Lolium multiflorum); assay: Test A postemergence; conditions: Lolium multiflorum, post-emergence, 240 h, 0 to 100 scale, read-out: Plant response rating, Ryegrass, Italian
In short: as §2

[20] = test system: giant foxtail (Setaria faberii); assay: Test A postemergence; conditions: Setaria faberi, post-emergence, 240 h, 0 to 100 scale, read-out: Plant response rating, Foxtail, Giant
In short: as §2

[21] = test system: waterhemp (common waterhemp, Amaranthus rudis); assay: Test C postemergence; conditions: Amaranthus tuberculatus, post-emergence, Postemergence, scale 0 to 100, read-out: Plant response rating, Waterhemp
In short: (§3)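 Visual ratings were made 13-15 days after treatment in the greenhouse, scored 0-100 against controls, where 100 means complete control. Treatments used a surfactant-containing non-phytotoxic solvent formulation, applied preemergence to seeds in loam-sand soil or postemergence to 2-18 cm plants (1-4 leaves) in peat-based medium.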

[22] = test system: kochia (Kochia scoparia); assay: Test C postemergence; conditions: Bassia scoparia, post-emergence, Postemergence, scale 0 to 100, read-out: Plant response rating, Kochia
In short: as §3

[23] = test system: wild oat (Avena fatua); assay: Test C postemergence; conditions: Avena fatua, post-emergence, Postemergence, scale 0 to 100, read-out: Plant response rating, Oat, Wild
In short: as §3

Fc1cccc(Oc2ncc(Cl)cn2)c1Oc1ncc(C(F)(F)F)cn1 [Compound 43, 5-chloro-2-[5-fluoro-6-[[5-(trifluoromethyl)-2-pyrimidinyl]oxy]phenoxy]pyrimidine]
pest or weed control at 250 g/ha [1]: 85%
pest or weed control at 250 g/ha [2]: 100%
plant injury at 250 g/ha [3]: 60%
pest or weed control at 250 g/ha [4]: 90%
pest or weed control at 125 g/ha ([5]; 125 g ai/ha, 0 to 100 scale (0 no effect, 100 complete control), read-out: Pigweed plant response rating): 100%
pest or weed control at 500 g/ha ([5]; 500 g ai/ha, 0 to 100 scale, read-out: Plant response rating, Pigweed): 100%
pest or weed control at 125 g/ha ([6]; 125 g ai/ha, 0 to 100 scale (0 no effect, 100 complete control), read-out: Kochia plant response rating): 100%
pest or weed control at 500 g/ha ([6]; 500 g ai/ha, 0 to 100 scale, read-out: Plant response rating, Kochia): 100%
pest or weed control at 125 g/ha ([7]; 125 g ai/ha, 0 to 100 scale (0 no effect, 100 complete control), read-out: Barnyardgrass plant response rating): 100%
pest or weed control at 500 g/ha ([7]; 500 g ai/ha, 0 to 100 scale, read-out: Plant response rating, Barnyardgrass): 100%
pest or weed control at 125 g/ha ([8]; 125 g ai/ha, 0 to 100 scale (0 no effect, 100 complete control), read-out: Ragweed plant response rating): 70%
pest or weed control at 500 g/ha ([8]; 500 g ai/ha, 0 to 100 scale, read-out: Plant response rating, Ragweed): 100%
pest or weed control at 125 g/ha ([9]; 125 g ai/ha, 0 to 100 scale (0 no effect, 100 complete control), read-out: Ryegrass, Italian plant response rating): 50%
pest or weed control at 500 g/ha ([9]; 500 g ai/ha, 0 to 100 scale, read-out: Plant response rating, Ryegrass, Italian): 100%
pest or weed control at 125 g/ha ([10]; 125 g ai/ha, 0 to 100 scale (0 no effect, 100 complete control), read-out: Foxtail, Giant plant response rating): 100%
pest or weed control at 500 g/ha ([10]; 500 g ai/ha, 0 to 100 scale, read-out: Plant response rating, Foxtail, Giant): 100%
pest or weed control at 125 g/ha ([11]; 125 g ai/ha): 100%
pest or weed control at 500 g/ha ([11]; 500 g ai/ha): 100%
pest or weed control at 125 g/ha ([12]; 125 g ai/ha): 100%
pest or weed control at 500 g/ha ([12]; 500 g ai/ha): 100%
Corn plant response rating (crop injury, 0 = no effect, 100 = complete kill) at 125 g/ha ([13]; 125 g ai/ha): 70%
Corn plant response rating (crop injury, 0 = no effect, 100 = complete kill) at 500 g/ha ([13]; 500 g ai/ha): 100%
pest or weed control at 125 g/ha ([14]; 125 g ai/ha): 90%
pest or weed control at 500 g/ha ([14]; 500 g ai/ha): 100%
plant injury at 125 g/ha ([15]; 125 g ai/ha): 80%
plant injury at 500 g/ha ([15]; 500 g ai/ha): 100%
pest or weed control at 125 g/ha ([16]; 125 g ai/ha): 90%
pest or weed control at 500 g/ha ([16]; 500 g ai/ha): 100%
pest or weed control at 125 g/ha ([17]; 125 g ai/ha): 100%
pest or weed control at 500 g/ha ([17]; 500 g ai/ha): 100%
pest or weed control at 125 g/ha ([18]; 125 g ai/ha): 70%
pest or weed control at 500 g/ha ([18]; 500 g ai/ha): 100%
pest or weed control at 125 g/ha ([19]; 125 g ai/ha): 80%
pest or weed control at 500 g/ha ([19]; 500 g ai/ha): 100%
pest or weed control at 125 g/ha ([20]; 125 g ai/ha): 90%
pest or weed control at 500 g/ha ([20]; 500 g ai/ha): 100%
pest or weed control at 31 g/ha ([21]; 31 g ai/ha): 70%
pest or weed control at 62 g/ha ([21]; 62 g ai/ha): 80%
pest or weed control at 125 g/ha ([21]; 125 g ai/ha): 90%
pest or weed control at 16 g/ha ([22]; 16 g ai/ha): 90%
pest or weed control at 31 g/ha ([22]; 31 g ai/ha): 95%
pest or weed control at 62 g/ha ([22]; 62 g ai/ha): 100%
pest or weed control at 125 g/ha ([22]; 125 g ai/ha): 100%
pest or weed control at 31 g/ha ([23]; 31 g ai/ha): 5%
pest or weed control at 62 g/ha ([23]; 62 g ai/ha): 20%
pest or weed control at 125 g/ha ([23]; 125 g ai/ha): 60%
